In patent US20070232607A1, “Quinazoline Derivatives as Erbb Receptor Tyrosine kinases” (priority 2004, published 2007) one finds IC50 data, which are given here for 4 compounds.

In experiment [1] the target is T1, EGFR tyrosine kinase (Homo sapiens, UniProt P00533).
T1 construct: Recombinant intracellular fragments of EGFR, erbB2 and erbB4; made in house; host or cells: baculovirus/Sf21 insect cells (cleared lysate used)
Briefly: Protein tyrosine kinase phosphorylation assay, Test (a), EGFR. The class given is biochemical. The settings on record: recombinant intracellular fragment, ATP at Km concentration; read-out: IC50 (μM) Test (a): Inhibition of EGFR tyrosine kinase protein phosphorylation. As to the method: (§1) This test measures the ability of a test compound to inhibit the phosphorylation of a tyrosine containing polypeptide substrate by an erb receptor tyrosine kinase enzyme.
(§2) Recombinant intracellular fragments of EGFR, erbB2 and erbB4 (accession numbers X00588, X03363 and L07868 respectively) were cloned and expressed in the baculovirus/Sf21 system. Lysates were prepared from these cells by treatment with ice-cold lysis buffer (20 mM N-2-hydroxyethylpiperizine-N′-2-ethanesulfonic acid (HEPES) pH7.5, 150 mM NaCl, 10% glycerol, 1% Triton X-100, 1.5 mM MgCl2, 1 mM ethylene glycol-bis(β-aminoethyl ether) N′,N′,N′,N′-tetraacetic acid (EGTA), plus protease inhibitors and then cleared by centrifugation.
(§3) Constitutive kinase activity of these recombinant proteins was determined by their ability to phosphorylate a synthetic peptide (made up of a random co-polymer of Glutamic Acid, Alanine and Tyrosine in the ratio of 6:3:1). Specifically, Maxisorb™ 96-well immunoplates were coated with synthetic peptide (0.2 μg of peptide in a 100 μl phosphate buffered saline (PBS) solution and incubated at 4° C. overnight). Plates were washed in 50 mM HEPES pH 7.4 at room temperature to remove any excess unbound synthetic peptide. EGFR or erbB2 activities were assessed by incubation in peptide coated plates for 20 minutes at room temperature in 50 mM HEPES pH 7.4 at room temperature, adenosine trisphosphate (ATP) at Km concentration for the respective enzyme, 10 mM MnCl2, 0.05 mM Na3VO4, 0.1 mM DL-dithiothreitol (DTT), 0.05% Triton X-100 with test compound in DMSO (final concentration of 2.5%). Reactions were terminated by the removal of the liquid components of the assay followed by washing of the plates with PBS-T (phosphate buffered saline with 0.05% Tween 20).
(§4) The immobilised phospho-peptide product of the reaction was detected by immunological methods. Firstly, plates were incubated for 90 minutes at room temperature with anti-phosphotyrosine primary antibodies that were raised in the mouse (4G10 from Upstate Biotechnology). Following extensive washing, plates were treated with Horseradish Peroxidase (HRP) conjugated sheep anti-mouse secondary antibody (NXA931 from Amersham) for 60 minutes at room temperature. After further washing, HRP activity in each well of the plate was measured colorimetrically using 22′-Azino-di-[3-ethylbenzthiazoline sulfonate (6)] diammonium salt crystals (ABTS™ from Roche) as a substrate.
(§5) Quantification of colour development and thus enzyme activity was achieved by the measurement of absorbance at 405 nm on a Molecular Devices ThermoMax microplate reader. Kinase inhibition for a given compound was expressed as an IC50 value. […] The range of phosphorylation was calculated from the positive (vehicle plus ATP) and negative (vehicle minus ATP) control values.

The target in experiment [2] is T2, erbB2 in a MCF7 derived cell line (Clone 24 cells) (Homo sapiens, UniProt P04626).
T2 construct: a cell line that overexpresses full length wild type erbB2 protein; expressed in transfected cells; host or cells: MCF7 (breast carcinoma) cells stably transfected, 'Clone 24'
Briefly: Clone 24 phospho-erbB2 cell assay, Test (d). The class given is cell-based. Particulars: phosphorylation of erbB2 in a MCF7 derived cell line; read-out: IC50 (μM) Test (e): Inhibition of erbB2 tyrosine kinase protein phosphorylation. As to the method: This immunofluorescence end point assay measures the ability of a test compound to inhibit the phosphorylation of erbB2 in a MCF7 (breast carcinoma) derived cell line which was generated by transfecting MCF7 cells with the full length erbB2 gene using standard methods to give a cell line that overexpresses full length wild type erbB2 protein (hereinafter ‘Clone 24’ cells).
Clone 24 cells were cultured in Growth Medium (phenol red free Dulbecco's modified Eagle's medium (DMEM) containing 10% foetal bovine serum, 2 mM glutamine and 1.2 mg/ml G418) in a 7.5% CO2 air incubator at 37° C. Cells were harvested from T75 stock flasks by washing once in PBS (phosphate buffered saline, pH7.4, Gibco No. 10010-015) and harvested using 2 mls of Trypsin (1.25 mg/ml)/ethylaminediaminetetraacetic acid (EDTA) (0.8 mg/ml) solution. The cells were resuspended in Growth Medium. Cell density was measured using a haemocytometer and viability was calculated using Trypan Blue solution before being further diluted in Growth Medium and seeded at a density of 1×10^4 cells per well (in 100 ul) into clear bottomed 96 well plates (Packard, No. 6005182).
3 days later, Growth Medium was removed from the wells and replaced with 100 ul Assay Medium (phenol red free DMEM, 2 mM glutamine, 1.2 mg/ml G418) either with or without erbB inhibitor compound. Plates were returned to the incubator for 4 hours and then 20 μl of 20% formaldehyde solution in PBS was added to each well and the plate was left at room temperature for 30 minutes. This fixative solution was removed with a multichannel pipette, 100 μl of PBS was added to each well and then removed with a multichannel pipette and then 50 μl PBS was added to each well. Plates were then sealed and stored for up to 2 weeks at 4° C.
Immunostaining was performed at room temperature. Cells were washed once with 200 μl PBS/Tween 20 (made by adding 1 sachet of PBS/Tween dry powder (Sigma, No. P3563) to 1 L of double distilled H2O) using a plate washer, then 100 μl of 0.5% Triton X-100/PBS was added to each well to permeabalise the cells. After 10 minutes, the plates were washed with 200 μl PBS/Tween 20 and then 100 μl Blocking Solution (5% Marvel dried simmed milk (Nestle) in PBS) was added per well and plates were incubated for 15 minutes. […] Plates were analysed within six hours of completing the immunostaining.
The Fluorescence signal is each well was measured using an Acumen Explorer Instrument (Acumen Bioscience Ltd.), a plate reader that can be used to rapidly quantitate features of images generated by laser-scanning. […] Fluorescence dose response data obtained with each compound was exported into a suitable software package (such as Origin) to perform curve fitting analysis. […]

Experiment [3] addresses T3, erbB2 tyrosine kinase (Homo sapiens, UniProt P04626).
T3 construct: Recombinant intracellular fragments of EGFR, erbB2 and erbB4; made in house; host or cells: baculovirus/Sf21 insect cells (cleared lysate used)
Briefly: Protein tyrosine kinase phosphorylation assay, Test (a), erbB2. The class given is biochemical. Particulars: recombinant intracellular fragment, ATP at Km concentration; read-out: IC50 (μM) Test (a): Inhibition of erbB2 tyrosine kinase protein phosphorylation. As to the method: as §1, §2, §3, §4, §5

T2 sequence (P04626 23-1255): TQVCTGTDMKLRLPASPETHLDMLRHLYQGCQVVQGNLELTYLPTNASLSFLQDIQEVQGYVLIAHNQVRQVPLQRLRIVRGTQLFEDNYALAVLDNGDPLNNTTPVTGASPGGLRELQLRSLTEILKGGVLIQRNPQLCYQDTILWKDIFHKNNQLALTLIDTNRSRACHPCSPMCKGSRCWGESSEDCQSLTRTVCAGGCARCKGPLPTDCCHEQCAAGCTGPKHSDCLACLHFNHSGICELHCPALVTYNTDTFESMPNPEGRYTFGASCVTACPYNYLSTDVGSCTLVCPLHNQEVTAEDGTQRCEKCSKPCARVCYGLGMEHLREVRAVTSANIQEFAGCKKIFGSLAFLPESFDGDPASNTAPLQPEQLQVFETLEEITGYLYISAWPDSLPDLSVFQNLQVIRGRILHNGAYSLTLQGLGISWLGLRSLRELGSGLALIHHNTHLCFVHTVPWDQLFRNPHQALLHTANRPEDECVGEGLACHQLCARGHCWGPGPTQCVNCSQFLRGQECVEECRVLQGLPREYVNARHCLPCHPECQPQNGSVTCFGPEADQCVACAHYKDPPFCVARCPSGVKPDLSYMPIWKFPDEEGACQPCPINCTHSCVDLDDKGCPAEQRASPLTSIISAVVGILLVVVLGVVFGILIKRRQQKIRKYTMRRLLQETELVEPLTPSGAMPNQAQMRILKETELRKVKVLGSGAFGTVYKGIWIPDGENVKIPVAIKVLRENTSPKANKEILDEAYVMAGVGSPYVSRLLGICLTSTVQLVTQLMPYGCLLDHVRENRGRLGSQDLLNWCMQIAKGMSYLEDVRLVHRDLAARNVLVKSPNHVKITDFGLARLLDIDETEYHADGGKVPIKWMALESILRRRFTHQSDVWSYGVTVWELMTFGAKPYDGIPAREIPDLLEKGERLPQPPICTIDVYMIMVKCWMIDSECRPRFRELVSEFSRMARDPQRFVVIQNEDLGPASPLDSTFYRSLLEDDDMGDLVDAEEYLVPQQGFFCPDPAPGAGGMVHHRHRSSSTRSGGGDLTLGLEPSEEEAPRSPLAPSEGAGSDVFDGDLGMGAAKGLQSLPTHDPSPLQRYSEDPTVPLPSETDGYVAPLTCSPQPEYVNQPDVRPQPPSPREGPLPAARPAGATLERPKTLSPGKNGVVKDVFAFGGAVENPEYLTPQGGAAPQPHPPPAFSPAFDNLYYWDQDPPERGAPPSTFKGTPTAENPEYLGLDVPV
T1 sequence (P00533 669-1210 limits assumed): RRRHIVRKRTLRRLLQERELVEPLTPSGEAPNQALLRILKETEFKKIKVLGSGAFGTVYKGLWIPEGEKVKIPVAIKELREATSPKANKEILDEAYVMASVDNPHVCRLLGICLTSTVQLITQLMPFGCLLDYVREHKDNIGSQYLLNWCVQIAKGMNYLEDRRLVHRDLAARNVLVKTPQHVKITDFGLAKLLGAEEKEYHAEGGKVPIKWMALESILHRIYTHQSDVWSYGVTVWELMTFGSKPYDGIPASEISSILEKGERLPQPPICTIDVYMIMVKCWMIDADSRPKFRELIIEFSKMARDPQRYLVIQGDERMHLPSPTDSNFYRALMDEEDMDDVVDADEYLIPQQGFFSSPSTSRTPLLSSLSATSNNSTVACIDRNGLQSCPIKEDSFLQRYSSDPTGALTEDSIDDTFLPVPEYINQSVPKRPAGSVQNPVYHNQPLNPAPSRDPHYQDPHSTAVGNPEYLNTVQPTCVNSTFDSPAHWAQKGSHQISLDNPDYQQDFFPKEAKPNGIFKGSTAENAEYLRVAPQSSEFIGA
T3 sequence (P04626 676-1255 limits assumed): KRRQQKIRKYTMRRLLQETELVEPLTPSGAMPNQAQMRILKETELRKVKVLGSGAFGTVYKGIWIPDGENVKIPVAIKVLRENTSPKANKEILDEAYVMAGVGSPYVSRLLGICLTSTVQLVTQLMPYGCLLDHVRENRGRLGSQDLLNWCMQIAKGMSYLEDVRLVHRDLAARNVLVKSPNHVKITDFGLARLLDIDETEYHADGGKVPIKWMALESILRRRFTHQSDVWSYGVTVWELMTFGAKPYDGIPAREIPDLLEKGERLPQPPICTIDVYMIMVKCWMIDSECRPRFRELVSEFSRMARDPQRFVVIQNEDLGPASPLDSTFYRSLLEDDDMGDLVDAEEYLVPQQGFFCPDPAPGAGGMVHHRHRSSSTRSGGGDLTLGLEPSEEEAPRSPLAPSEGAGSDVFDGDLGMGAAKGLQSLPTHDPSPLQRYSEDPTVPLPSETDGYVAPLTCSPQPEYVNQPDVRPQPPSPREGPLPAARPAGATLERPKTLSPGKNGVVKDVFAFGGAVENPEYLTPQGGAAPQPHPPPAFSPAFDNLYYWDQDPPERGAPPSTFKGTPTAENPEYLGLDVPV

What is called IC50 is the midpoint of a concentration-inhibition curve. With `C[C@H](Oc1cccc2ncnc(Nc3ccc(OCc4ccccn4)c(Cl)c3)c12)C(=O)N1CCC[C@H]1CO` [Example 34, ((2S)-1-{(2S)-2-[(4-{[3-Chloro-4-(pyridin-2-ylmethoxy)phenyl]amino}quinazolin-5-yl)oxy]propanoyl}pyrrolidin-2-yl)methanol], the figures for the IC50 in experiment [1], in experiment [2] and in experiment [3] were 0.135 µM, 0.001 µM and 0.002 µM, respectively.
Turning to `CC(C)(Oc1cccc2ncnc(Nc3ccc(OCc4ccccn4)c(Cl)c3)c12)C(N)=O` [Example 42, 2-[(4-{[3-Chloro-4-(pyridin-2-ylmethoxy)phenyl]amino}quinazolin-5-yl)oxy]-2-methylpropanamide], the IC50 was found to be 24.8 µM in experiment [1], 0.002 µM in experiment [2] and 0.012 µM in experiment [3].
With `Cc1ccc(Oc2ccc(Nc3ncnc4cccc(OCC(=O)NCCO)c34)cc2C)cn1` [Example 52, N-(2-Hydroxyethyl)-2-{[4-({3-methyl-4-[(6-methylpyridin-3-yl)oxy]phenyl}amino)quinazolin-5-yl]oxy}acetamide], the IC50 in experiment [1] is 1.47 µM; in experiment [2], 0.019 µM; in experiment [3], 0.002 µM.
For `C[C@@H](Oc1cccc2ncnc(Nc3ccc(OCc4ccccn4)c(Cl)c3)c12)C(=O)N(C)C` [Example 21, (2R)-2-[(4-{[3-Chloro-4-(pyridin-2-ylmethoxy)phenyl]amino}quinazolin-5-yl)oxy]-N,N-dimethylpropanamide], in that order: 0.072 µM, 0.001 µM and 0.002 µM.
